From patent US20260132140A1, “IMIDAZOLYL-AMINO-PYRAZINE-CARBONITRILS AS CHK-1 INHIBITORS” (BenevolentAI Bio Limited, priority 2022, published 2026)
Read-outs that look alike come from different tables or passages of the source.

Experiments:
human Chk2 kinase [1] = target: T1, human Chk2 kinase (Homo sapiens, UniProt O96017)
RSK4 = target: T2, RSK4 (Homo sapiens, UniProt Q9UK32); test: RSK1-4 kinase assay (Eurofins KinaseProfiler, radiometric): RSK4; assay type: biochemical; settings: approximately ATP Km
T2 construct: purchased Eurofins (KinaseProfiler service)
T2 sequence (Q9UK32 whole entry): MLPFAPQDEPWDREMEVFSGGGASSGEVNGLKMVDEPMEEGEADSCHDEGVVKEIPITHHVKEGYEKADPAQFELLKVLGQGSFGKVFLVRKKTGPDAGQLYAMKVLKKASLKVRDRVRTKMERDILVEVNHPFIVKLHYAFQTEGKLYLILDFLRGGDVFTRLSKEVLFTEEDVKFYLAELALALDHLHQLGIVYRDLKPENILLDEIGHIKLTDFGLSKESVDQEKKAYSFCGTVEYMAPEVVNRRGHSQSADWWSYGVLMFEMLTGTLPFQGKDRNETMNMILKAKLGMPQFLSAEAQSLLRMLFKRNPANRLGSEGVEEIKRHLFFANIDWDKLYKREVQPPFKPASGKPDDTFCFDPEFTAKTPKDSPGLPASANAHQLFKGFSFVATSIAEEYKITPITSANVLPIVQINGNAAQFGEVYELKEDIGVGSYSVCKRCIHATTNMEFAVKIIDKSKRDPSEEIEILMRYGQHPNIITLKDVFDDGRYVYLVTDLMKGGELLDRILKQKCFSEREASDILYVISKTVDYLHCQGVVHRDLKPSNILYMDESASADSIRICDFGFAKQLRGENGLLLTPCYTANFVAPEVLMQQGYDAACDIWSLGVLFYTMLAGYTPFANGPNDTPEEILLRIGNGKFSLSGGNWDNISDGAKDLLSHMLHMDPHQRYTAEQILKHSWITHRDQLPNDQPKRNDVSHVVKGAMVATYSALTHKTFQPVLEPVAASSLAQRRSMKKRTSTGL
From the text: (§1) The radiometric kinase activity assays were run at approximately the ATP Km for each kinase and the IC50 data is shown in Table 24.

RSK2 = target: T3, RSK2 (Homo sapiens, UniProt P51812); test: RSK1-4 kinase assay (Eurofins KinaseProfiler, radiometric): RSK2; assay type: biochemical; settings: approximately ATP Km
T3 construct: purchased Eurofins (KinaseProfiler service)
T3 sequence (P51812 whole entry): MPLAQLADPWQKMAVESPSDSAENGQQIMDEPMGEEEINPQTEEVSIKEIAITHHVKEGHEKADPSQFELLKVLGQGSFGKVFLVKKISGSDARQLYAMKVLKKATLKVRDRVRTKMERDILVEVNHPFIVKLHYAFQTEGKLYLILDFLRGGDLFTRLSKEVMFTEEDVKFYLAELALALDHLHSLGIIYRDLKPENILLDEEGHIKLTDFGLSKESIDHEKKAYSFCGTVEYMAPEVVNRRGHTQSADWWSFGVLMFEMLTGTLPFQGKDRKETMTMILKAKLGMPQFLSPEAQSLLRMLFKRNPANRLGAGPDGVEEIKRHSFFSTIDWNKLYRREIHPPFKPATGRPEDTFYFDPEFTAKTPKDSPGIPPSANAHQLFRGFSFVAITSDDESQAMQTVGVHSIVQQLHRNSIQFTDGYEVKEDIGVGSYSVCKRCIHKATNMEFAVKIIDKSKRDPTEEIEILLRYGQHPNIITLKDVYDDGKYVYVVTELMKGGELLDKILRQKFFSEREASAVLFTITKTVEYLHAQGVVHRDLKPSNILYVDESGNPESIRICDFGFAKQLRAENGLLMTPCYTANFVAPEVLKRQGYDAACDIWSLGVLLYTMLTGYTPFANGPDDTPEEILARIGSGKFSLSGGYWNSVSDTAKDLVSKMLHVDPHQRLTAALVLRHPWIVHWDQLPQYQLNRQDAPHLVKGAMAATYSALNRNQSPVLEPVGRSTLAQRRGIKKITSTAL
From the text: as §1

RSK1 = target: T4, RSK1 (Homo sapiens, UniProt Q15418); test: RSK1-4 kinase assay (Eurofins KinaseProfiler, radiometric): RSK1; assay type: biochemical; settings: approximately ATP Km
T4 construct: purchased Eurofins (KinaseProfiler service)
T4 sequence (Q15418 whole entry): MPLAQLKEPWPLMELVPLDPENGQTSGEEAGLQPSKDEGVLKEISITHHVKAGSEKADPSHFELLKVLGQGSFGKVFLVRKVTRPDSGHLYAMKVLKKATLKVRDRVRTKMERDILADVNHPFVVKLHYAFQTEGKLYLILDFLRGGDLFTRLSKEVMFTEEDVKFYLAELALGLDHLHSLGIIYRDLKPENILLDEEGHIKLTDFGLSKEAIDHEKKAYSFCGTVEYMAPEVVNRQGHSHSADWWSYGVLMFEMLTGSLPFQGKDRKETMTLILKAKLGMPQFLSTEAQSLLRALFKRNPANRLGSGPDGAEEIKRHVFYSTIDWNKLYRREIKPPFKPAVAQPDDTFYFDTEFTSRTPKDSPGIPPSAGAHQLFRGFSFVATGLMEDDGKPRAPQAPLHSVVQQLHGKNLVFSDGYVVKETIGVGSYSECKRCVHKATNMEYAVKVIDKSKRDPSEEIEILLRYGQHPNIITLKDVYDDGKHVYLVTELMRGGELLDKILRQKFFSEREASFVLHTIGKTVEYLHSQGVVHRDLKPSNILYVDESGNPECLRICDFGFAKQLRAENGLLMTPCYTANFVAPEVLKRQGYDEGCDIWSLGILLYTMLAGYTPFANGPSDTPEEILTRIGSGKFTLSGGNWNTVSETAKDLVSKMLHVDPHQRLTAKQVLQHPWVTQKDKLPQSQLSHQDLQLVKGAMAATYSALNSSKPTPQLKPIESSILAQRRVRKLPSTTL
From the text: as §1

RSK3 = target: T5, RSK3 (Homo sapiens, UniProt Q15349); test: RSK1-4 kinase assay (Eurofins KinaseProfiler, radiometric): RSK3; assay type: biochemical; settings: approximately ATP Km
T5 construct: purchased Eurofins (KinaseProfiler service)
T5 sequence (Q15349 whole entry): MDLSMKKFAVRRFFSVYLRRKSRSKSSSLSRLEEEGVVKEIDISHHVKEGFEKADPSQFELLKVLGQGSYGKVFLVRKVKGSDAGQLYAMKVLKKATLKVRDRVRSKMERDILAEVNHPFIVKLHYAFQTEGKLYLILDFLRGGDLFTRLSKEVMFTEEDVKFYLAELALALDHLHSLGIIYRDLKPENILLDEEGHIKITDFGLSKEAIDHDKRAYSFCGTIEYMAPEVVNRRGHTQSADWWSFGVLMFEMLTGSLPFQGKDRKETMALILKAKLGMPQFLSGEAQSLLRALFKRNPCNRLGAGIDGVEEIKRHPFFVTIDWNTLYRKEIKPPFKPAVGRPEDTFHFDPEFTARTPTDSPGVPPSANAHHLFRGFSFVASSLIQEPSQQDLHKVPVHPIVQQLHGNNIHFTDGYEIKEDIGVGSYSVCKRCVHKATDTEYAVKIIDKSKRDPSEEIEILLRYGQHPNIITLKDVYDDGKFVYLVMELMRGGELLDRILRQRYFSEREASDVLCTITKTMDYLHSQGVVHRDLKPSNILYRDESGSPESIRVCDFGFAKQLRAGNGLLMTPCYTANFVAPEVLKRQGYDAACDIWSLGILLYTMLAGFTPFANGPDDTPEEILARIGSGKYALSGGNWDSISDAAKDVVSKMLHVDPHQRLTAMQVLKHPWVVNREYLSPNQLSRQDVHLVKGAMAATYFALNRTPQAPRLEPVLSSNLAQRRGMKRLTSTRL
From the text: as §1

GBM LN18 cells = test: In vitro cell viability assay (Cell Titre Glo, 72 hours); assay type: cell-based; settings: Homo sapiens, LN-18, read-out: LN18 pIC50 (converted)
Protocol: GBM LN18 cells were incubated with increasing concentrations of selected compounds of the invention for 72 hours prior to the measurement of ATP in metabolically viable cells with the Cell Titre® Glo Luminescent reagent. A 10-point concentration response curve up to a maximum concentration of 10 μM was tested.
The percent (%) effect i.e., inhibition at each concentration of compound was calculated based on, and relative to the amount of inhibition produced in the vehicle control and inhibited control wells contained within each plate.

human Chk1 kinase [2] = target: T6, human Chk1 kinase (Homo sapiens, UniProt O14757); test: biochemical
T6 sequence (O14757 1-476): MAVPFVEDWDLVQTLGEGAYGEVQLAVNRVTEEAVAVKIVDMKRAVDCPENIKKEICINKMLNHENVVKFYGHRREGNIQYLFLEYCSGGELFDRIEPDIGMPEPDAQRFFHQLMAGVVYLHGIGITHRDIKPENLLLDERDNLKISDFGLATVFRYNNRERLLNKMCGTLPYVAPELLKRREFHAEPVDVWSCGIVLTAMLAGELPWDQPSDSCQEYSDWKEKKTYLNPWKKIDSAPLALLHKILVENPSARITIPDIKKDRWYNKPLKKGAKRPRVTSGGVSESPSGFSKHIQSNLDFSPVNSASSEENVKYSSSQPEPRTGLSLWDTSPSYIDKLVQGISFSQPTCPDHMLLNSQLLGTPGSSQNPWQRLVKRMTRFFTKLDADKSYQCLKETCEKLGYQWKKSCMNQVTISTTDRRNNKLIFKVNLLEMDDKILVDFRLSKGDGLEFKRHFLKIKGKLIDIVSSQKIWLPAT

[3] = test system: pChk1(Ser296) in SW620 cells; test: pChk1(Ser296) sandwich ELISA, cell-based on-target kinase activity; settings: Homo sapiens, read-out: SW620 pIC50 (converted)
Protocol: ELISA assays were performed as per the manufacturer's protocol. […] Selected compounds of the invention were tested as a 8-point concentration response up to a maximum concentration of either 1 μM, 3 μM or 10 μM. The percent (%) effect i.e. inhibition at each concentration of compound was calculated based on, and relative to, the amount of inhibition produced in the vehicle control and inhibited control wells contained within each plate.

human Chk2 kinase [4] = target: T1, human Chk2 kinase; test: biochemical
[5] = test system: 373 human wild-type kinases; test: Kinome selectivity, Eurofins KinaseProfiler kinase screen; assay type: biochemical; settings: panel of 373 human wild-type kinases, approximately ATP Km, top concentration 10 μM
From the text: The radiometric kinase activity assays were run at approximately the ATP Km for each kinase.

human Chk1 kinase [6] = target: T6, human Chk1 kinase; test: Human Chk1 HTRF (Homogeneous Time Resolved Fluorescence) enzyme assay; settings: 1 nM Chk-1, 30 μM ATP
[7] = SW-620, neocarzinostatin 7.5 μM, 2 hours
[8] = SW-620, 2 h, neocarzinostatin 7.5 μM

T1 sequence (O96017 whole entry): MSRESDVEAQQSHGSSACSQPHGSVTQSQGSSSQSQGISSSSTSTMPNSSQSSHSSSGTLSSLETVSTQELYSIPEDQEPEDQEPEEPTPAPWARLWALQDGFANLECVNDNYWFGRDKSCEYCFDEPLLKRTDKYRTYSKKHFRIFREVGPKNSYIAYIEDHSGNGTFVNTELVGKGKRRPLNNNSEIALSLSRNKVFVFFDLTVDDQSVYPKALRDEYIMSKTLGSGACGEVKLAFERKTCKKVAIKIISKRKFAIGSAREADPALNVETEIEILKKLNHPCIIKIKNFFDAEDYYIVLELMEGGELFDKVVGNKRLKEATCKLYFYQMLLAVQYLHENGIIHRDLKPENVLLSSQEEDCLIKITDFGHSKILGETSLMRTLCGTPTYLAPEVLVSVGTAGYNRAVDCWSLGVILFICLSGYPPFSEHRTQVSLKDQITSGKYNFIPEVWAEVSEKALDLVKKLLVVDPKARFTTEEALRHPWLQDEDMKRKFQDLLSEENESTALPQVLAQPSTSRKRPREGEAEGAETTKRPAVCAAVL

IC50 (human Chk2 kinase [1]) | IC50 (RSK4) | IC50 (RSK2) | IC50 (RSK1) | IC50 (RSK3) | IC50 (human Chk1 kinase [2]) | IC50 (human Chk2 kinase [4]) | SMILES | also measured
> 100 µM |  |  |  |  |  |  | N#Cc1cnc(Nc2cn(-c3ccc(N4CCN5CCCC5C4)cc3)cn2)cn1 (single isomer, unassigned) [Example 118, 5-((1-(4-(Hexahydropyrrolo[1,2-a]pyrazin-2(1H)-yl)phenyl)-1H-imidazol-4-yl)amino)pyrazine-2-carbonitrile] | 
 | 0.077 µM | 0.08 µM | 0.259 µM | 0.024 µM |  |  | COc1cc(N2CCN(C)CC2)ccc1-c1cc(Nc2cnc(C#N)cn2)n[nH]1 [Comparator Ex. 2, 5-((5-(2-Methoxy-4-(4-methylpiperazin-1-yl)phenyl)-1H-pyrazol-3-yl)amino)pyrazine-2-carbonitrile, reference compound] | 
10 to 100 µM |  |  |  |  | 0.01 to 0.0316 µM |  | CN(C)CC1CN(c2cccc(-n3cnc(Nc4cnc(C#N)cn4)c3)c2)CCO1 (single isomer, unassigned) [Example 108, 5-((1-(3-(2-((Dimethylamino)methyl)morpholino)phenyl)-1H-imidazol-4-yl)amino)pyrazine-2-carbonitrile] | 
10 to 100 µM |  |  |  |  |  |  | CN(C)C1CCCN(c2cccc(-n3cnc(Nc4cnc(C#N)cn4)c3)c2)C1 (single isomer, unassigned) [Example 112, 5-((1-(3-(3-(Dimethylamino)piperidin-1-yl)phenyl)-1H-imidazol-4-yl)amino)pyrazine-2-carbonitrile] | 
> 100 µM |  |  |  |  |  |  | N#Cc1cnc(Nc2cn(-c3cccc(N4CCC(N)C(F)(F)C4)c3)cn2)cn1 (single isomer, unassigned) [Example 167, 5-((1-(3-(4-Amino-3,3-difluoropiperidin-1-yl)phenyl)-1H-imidazol-4-yl)amino)pyrazine-2-carbonitrile] | 
 | 0.163 µM | 0.172 µM | 0.57 µM | 0.06 µM |  |  | CCNCc1ccc(-c2cc(Nc3cnc(C#N)cn3)n[nH]2)c(OC)c1 [Comparator Ex. 3, 5-((5-(4-((Ethylamino)methyl)-2-methoxyphenyl)-1H-pyrazol-3-yl)amino)pyrazine-2-carbonitrile, reference compound] | 
 | 4.07 µM | 2.67 µM | 6.78 µM | 1.92 µM | 0.01 to 0.0316 µM | 10 to 100 µM | CN1CCC12CN(c1ccc(-n3cnc(Nc4cnc(C#N)cn4)c3)cc1)C2 [Example 61, 5-((1-(4-(1-Methyl-1,6-diazaspiro[3.3]heptan-6-yl)phenyl)-1H-imidazol-4-yl)amino)pyrazine-2-carbonitrile] | 
1 to 10 µM |  |  |  |  |  |  | N#Cc1cnc(Nc2cn(-c3ccc(N4CCC(N5CC6(CCC6)C5)C4)cc3)cn2)cn1 (single isomer, unassigned) [Example 132, 5-((1-(4-(3-(2-Azaspiro[3.3]heptan-2-yl)pyrrolidin-1-yl)phenyl)-1H-imidazol-4-yl)amino)pyrazine-2-carbonitrile] | 
 | 1.96 µM | 1.12 µM | 3.42 µM | 0.822 µM | < 0.01 µM | 1 to 10 µM | CN[C@@H]1CCN(c2ccc(-n3cnc(Nc4cnc(C#N)cn4)c3)cc2)C1 [Example 155, (R)-5-((1-(4-(3-(Methylamino)pyrrolidin-1-yl)phenyl)-1H-imidazol-4-yl)amino)pyrazine-2-carbonitrile] | Number of 372 kinases inhibited relative to Chk1 IC50 Within 10-fold [5]: 1; Number of 372 kinases inhibited relative to Chk1 IC50 Within 100-fold [5]: 6; IC50 (GBM LN18 cells): < 1 µM; IC50 [3, 8]: < 1 µM
 | 0.005 µM | 0.002 µM | 0.02 µM | 0.004 µM |  |  | COc1cccc(OCCCN)c1-c1cc(Nc2cnc(C#N)cn2)n[nH]1 [Comparator Ex. 1, 5-((5-(2-(3-Aminopropoxy)-6-methoxyphenyl)-1H-pyrazol-3-yl)amino)pyrazine-2-carbonitrile, reference compound] | 
 |  |  |  |  |  | > 100 µM | CC1CN(C2CCN(c3ccc(-n4cnc(Nc5cnc(C#N)cn5)c4)cc3)C2)C1 (single isomer, unassigned) [Example 126, 5-((1-(4-(3-(3-Methylazetidin-1-yl)pyrrolidin-1-yl)phenyl)-1H-imidazol-4-yl)amino)pyrazine-2-carbonitrile] | Chk1 pIC50 (human Chk1 kinase [6]): D (D: 7.5-8.0)
 | 4.96 µM | 2.46 µM | > 10 µM | 2.21 µM |  |  | CN1CCC(F)(c2ccc(-n3cnc(Nc4cnc(C#N)cn4)c3)cc2)CC1 [Example 4, 5-((1-(4-(4-Fluoro-1-methylpiperidin-4-yl)phenyl)-1H-imidazol-4-yl)amino)pyrazine-2-carbonitrile] | 
 |  |  |  |  |  | 10 to 100 µM | CN(CCO)C1CCN(c2cccc(-n3cnc(Nc4cnc(C#N)cn4)c3)c2)C1 (single isomer, unassigned) [Example 110, 5-((1-(3-(3-((2-Hydroxyethyl)(methyl)amino)pyrrolidin-1-yl)phenyl)-1H-imidazol-4-yl)amino)pyrazine-2-carbonitrile] | Chk1 pIC50 (human Chk1 kinase [6]): D (D: 7.5-8.0)
> 100 µM |  |  |  |  |  |  | CN1CCC12CCN(c1ccc(-n3cnc(Nc4cnc(C#N)cn4)c3)cc1)C2 (single isomer, unassigned) [Example 128, 5-((1-(4-(1-Methyl-1,6-diazaspiro[3.4]octan-6-yl)phenyl)-1H-imidazol-4-yl)amino)pyrazine-2-carbonitrile] | 
 |  |  |  |  | 0.01 to 0.0316 µM | 10 to 100 µM | N#Cc1cnc(Nc2cn(-c3ccc(N4CCC(N5CCC5)C4)cc3)cn2)cn1 (single isomer, unassigned) [Example 113, 5-((1-(4-(3-(Azetidin-1-yl)pyrrolidin-1-yl)phenyl)-1H-imidazol-4-yl)amino)pyrazine-2-carbonitrile] | IC50 (GBM LN18 cells): < 1 µM; IC50 [3, 8]: 1 to 10 µM
10 to 100 µM |  |  |  |  |  |  | CN1CCOC(c2ccc(-n3cnc(Nc4cnc(C#N)cn4)c3)cc2)C1 (single isomer, unassigned) [Example 106, 5-((1-(4-(4-Methylmorpholin-2-yl)phenyl)-1H-imidazol-4-yl)amino)pyrazine-2-carbonitrile] | 
 |  |  |  |  |  | 1 to 10 µM | CC1(C)CN(C2CCN(c3ccc(-n4cnc(Nc5cnc(C#N)cn5)c4)cc3)C2)C1 (single isomer, unassigned) [Example 124, 5-((1-(4-(3-(3,3-Dimethylazetidin-1-yl)pyrrolidin-1-yl)phenyl)-1H-imidazol-4-yl)amino)pyrazine-2-carbonitrile] | Chk1 pIC50 (human Chk1 kinase [6]): D (D: 7.5-8.0)
 |  |  |  |  | < 0.01 µM | 1 to 10 µM | CN[C@H]1CN(c2ccc(-n3cnc(Nc4cnc(C#N)cn4)c3)cc2)C[C@H]1F [Example 92, 5-((1-(4-((3R,4S)-3-Fluoro-4-(methylamino)pyrrolidin-1-yl)phenyl)-1H-imidazol-4-yl)amino)pyrazine-2-carbonitrile] | IC50 (GBM LN18 cells): < 1 µM; IC50 [3, 8]: < 1 µM

SMILES | IC50 (human Chk2 kinase [1]) | IC50 (RSK4) | IC50 (RSK2) | IC50 (RSK1) | IC50 (RSK3) | IC50 (human Chk1 kinase [2]) | IC50 (human Chk2 kinase [4]) | also measured
CN(C)[C@@H]1CCN(c2ccc(-n3cnc(Nc4cnc(C#N)cn4)c3)cc2)C1 [Example 12, (R)-5-((1-(4-(3-(Dimethylamino)pyrrolidin-1-yl)phenyl)-1H-imidazol-4-yl)amino)pyrazine-2-carbonitrile] |  | 9.2 µM | 6.62 µM | > 10 µM | 4.34 µM | < 0.01 µM |  | IC50 (GBM LN18 cells): < 1 µM; IC50 [3, 7]: < 1 µM
N#Cc1cnc(Nc2cn(-c3ccccc3OCCCN)cn2)cn1 [Example 168, 5-((1-(2-(3-Aminopropoxy)phenyl)-1H-imidazol-4-yl)amino)pyrazine-2-carbonitrile] |  | > 10 µM | 7.07 µM | > 10 µM | 5.83 µM |  |  | IC50 (GBM LN18 cells): 1 to 10 µM; IC50 [3, 7]: 1 to 10 µM
